Reference: PubChem BioAssay AID1259411 (Chemical Carcinogenesis Research Information System (CCRIS), 2018)
Calls of active or inactive are those of the source. How the calls were made is not given here.

Test system: rodent carcinogenicity bioassays, tumor incidence
Experiment: CCRIS carcinogenicity studies
Outline: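 Archive of carcinogenicity, mutagenicity, tumor promotion and tumor inhibition results drawn from journals, NCI reports and other sources, expert-reviewed; covers 1985-2011 and is no longer updated.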

With CN(C)N=O the carcinogen call (Species: DUCK, Route: ORAL, Tumor Site: Type of Lesion: LIVER) was “active; positive”, the carcinogen call (Species: FISH, Route: ORAL, Tumor Site: Type of Lesion: LIVER) was “active; positive” and the carcinogen call (Species: GUINEA PIG, Route: ORAL, Tumor Site: Type of Lesion: LIVER) was “active; positive”. The carcinogen call (Species: HAMSTER, Route: ORAL, Tumor Site: Type of Lesion: LIVER) was “active; positive”, the carcinogen call (Species: HAMSTER, Route: SUBCUTANEOUS, Tumor Site: Type of Lesion: LIVER, KIDNEY, NASAL CAVITY, Tumor Site: Type of Lesion: LIVER, KIDNEY, NASAL CAVITY) was “active; positive” and the carcinogen call (Species: HAMSTER, Strain/Sex: SYRIAN/MALE, Route: INTRATRACHEAL, Dose: 0, 0.05, 0.1 MG IN PHOSPHATE BUFFER 1/WK FOR 15 WK (TOTAL DOSE: 0; 0.75; 0.5 MG) (STUDY DURATION: LIFESPAN), Dose: 0, 0.05, 0.1 MG IN PHOSPHATE BUFFER 1/WK FOR 15 WK (TOTAL DOSE: 0; 0.75; 0.5 MG) (STUDY DURATION: LIFESPAN), Tumor Site: Type of Lesion: LIVER: HEMANGIOSARCOMA, TUMOR) was “active; positive”. For the same compound, the carcinogen call (Species: HAMSTER, Strain/Sex: SYRIAN/MALE, Route: INTRATRACHEAL, Dose: 0, 0.5 MG IN PHOSPHATE BUFFER ONCE (STUDY DURATION: LIFESPAN)) was “inactive; negative”, the carcinogen call (Species: MOUSE, Route: INHALATION, Tumor Site: Type of Lesion: LIVER, LUNG, KIDNEY, Tumor Site: Type of Lesion: LIVER, LUNG, KIDNEY) was “active; positive” and the carcinogen call (Species: MOUSE, Route: INTRAPERITONEAL, Tumor Site: Type of Lesion: LIVER, LUNG, KIDNEY, Tumor Site: Type of Lesion: LIVER, LUNG, KIDNEY) was “active; positive”. For the same compound, the carcinogen call (Species: MOUSE, Route: ORAL, Tumor Site: Type of Lesion: LIVER, LUNG, KIDNEY, Tumor Site: Type of Lesion: LIVER, LUNG, KIDNEY) was “active; positive”, the carcinogen call (Species: MOUSE, Route: SUBCUTANEOUS, Tumor Site: Type of Lesion: LIVER, LUNG) was “active; positive” and the carcinogen call (Species: MOUSE, Strain/Sex: C3H/FEMALE, Route: TRANSPLACENTAL, Dose: 0, 0.1 MMOL IN 0.9% STERILE SALINE (7.4 MG/KG) ON DAY 16 OF GESTATION (STUDY DURATION: LIFETIME), Tumor Site: Type of Lesion: LIVER: CARCINOMA) was “active; positive”. The carcinogen call (Species: MOUSE, Strain/Sex: C3H/FEMALE, Route: TRANSPLACENTAL, Dose: 0, 0.1 MMOL IN 0.9% STERILE SALINE (7.4 MG/KG) ON DAY 19 OF GESTATION (STUDY DURATION: LIFETIME), Tumor Site: Type of Lesion: LIVER: CARCINOMA) was “active; positive”, the carcinogen call (Species: MOUSE, Strain/Sex: C3H/MALE, Route: TRANSPLACENTAL, Dose: 0, 0.1 MMOL IN 0.9% STERILE SALINE (7.4 MG/KG) ON DAY 16 OF GESTATION (STUDY DURATION: LIFETIME)) was “inactive; negative” and the carcinogen call (Species: MOUSE, Strain/Sex: C3H/MALE, Route: TRANSPLACENTAL, Dose: 0, 0.1 MMOL IN 0.9% STERILE SALINE (7.4 MG/KG) ON DAY 19 OF GESTATION (STUDY DURATION: LIFETIME), Tumor Site: Type of Lesion: LIVER: CARCINOMA) was “active; positive”. The carcinogen call (Species: MOUSE, Strain/Sex: STRAIN-A/FEMALE, Route: INTRAPERITONEAL, Dose: 0, 5, 20 UMOL TOTAL DOSE ADMINISTERED IN SUBDOSES 3/WK FOR 7 WK (STUDY DURATION: 37 WK), Dose: 0, 5, 20 UMOL TOTAL DOSE ADMINISTERED IN SUBDOSES 3/WK FOR 7 WK (STUDY DURATION: 37 WK), Tumor Site: Type of Lesion: LUNG: TUMOR) was “active; positive”, the carcinogen call (Species: RABBIT, Route: ORAL, Tumor Site: Type of Lesion: LIVER) was “active; positive” and the carcinogen call (Species: RAT, Route: INHALATION, Tumor Site: Type of Lesion: NASAL CAVITY) was “active; positive”. The carcinogen call (Species: RAT, Route: ORAL, Tumor Site: Type of Lesion: LIVER, KIDNEY) was “active; positive”, the carcinogen call (Species: RAT, Route: SUBCUTANEOUS, INTRAPERITONEAL, Tumor Site: Type of Lesion: KIDNEY) was “active; positive” and the carcinogen call (Species: RAT, Strain/Sex: F344/FEMALE, Route: INTRAVESICULAR, Dose: 0, 2 MG IN 0.2 ML ETHANOL: DEIONIZED WATER (1:3) 2/WK FOR 30 WK (TOTAL DOSE: 1.6 MMOL) (STUDY DURATION: LIFESPAN), Tumor Site: Type of Lesion: KIDNEY: MESENCHYMAL NEOPLASM, LUNG: TUMOR) was “active; positive”. The carcinogen call (Species: RAT, Strain/Sex: SPRAGUE-DAWLEY/FEMALE, Route: INHALATION, Dose: 0, 0.04, 0.2, 1 PPM 4-5 HR/D 4 D/WK FOR 207 D (ESTIMATED DAILY UPTAKE OF 0; 10; 40; 180 UG/KG) (STUDY DURATION: 207 D), Dose: 0, 0.04, 0.2, 1 PPM 4-5 HR/D 4 D/WK FOR 207 D (ESTIMATED DAILY UPTAKE OF 0; 10; 40; 180 UG/KG) (STUDY DURATION: 207 D), Tumor Site: Type of Lesion: NASAL CAVITY: TUMOR) was “active; positive”, the carcinogen call (Species: RAT, Strain/Sex: WISTAR/FEMALE, Route: INTRAPERITONEAL, Dose: 0, 0.04% IN 0.1-0.2 ML PHYSIOLOGICAL SALINE 1/D FOR D 1-5 OF LIFE (TOTAL DOSE 0.2 MG) (STUDY DURATION: LIFESPAN OR 1 YR), Tumor Site: Type of Lesion: LIVER: HEPATOCELLULAR CARCINOMA, HEPATOMA, CHOLANGIOMA, ANGIOMA, KIDNEY: MESENCHYMAL TUMOR, EPITHELIAL TUMOR) was “active; positive” and the carcinogen call (Species: RAT, Strain/Sex: WISTAR/FEMALE, Route: INTRAPERITONEAL, Dose: 0, 0.04% IN 0.1-0.2 ML PHYSIOLOGICAL SALINE 1/D FOR D 1-10 OF LIFE (TOTAL DOSE 0.4 MG) (STUDY DURATION: LIFESPAN OR 1 YR, Tumor Site: Type of Lesion: LIVER: HEPATOCELLULAR CARCINOMA, HEPATOMA, CHOLANGIOMA, ANGIOMA, KIDNEY: MESENCHYMAL TUMOR, EPITHELIAL TUMOR) was “active; positive”. The carcinogen call (Species: RAT, Strain/Sex: WISTAR/FEMALE, Route: INTRAPERITONEAL, Dose: 0, 0.04% IN 0.1-0.2 ML PHYSIOLOGICAL SALINE 1/D FOR D 1-20 OF LIFE (TOTAL DOSE 0.5 MG) (STUDY DURATION: LIFESPAN OR 1 YR, Tumor Site: Type of Lesion: LIVER: HEPATOCELLULAR CARCINOMA, HEPATOMA, ANGIOMA, KIDNEY: MESENCHYMAL TUMOR) was “active; positive”, the carcinogen call (Species: RAT, Strain/Sex: WISTAR/FEMALE, Route: ORAL, Dose: 0, 0.033, 0.066, 0.132, 0.264, 0.528, 1.056, 1.584, 2.112, 2.640, 3.168, 4.224, 5.280, 6.336, 8.448, 16.896 PPM IN DRINK, Dose: 0, 0.033, 0.066, 0.132, 0.264, 0.528, 1.056, 1.584, 2.112, 2.640, 3.168, 4.224, 5.280, 6.336, 8.448, 16.896 PPM IN DRINK, Tumor Site: Type of Lesion: LIVER: HEPATOCELLULAR CARCINOMA, HEMANGIOMA, BILE DUCT: TUMOR) was “active; positive” and the carcinogen call (Species: RAT, Strain/Sex: WISTAR/MALE, Route: INTRAPERITONEAL, Dose: 0, 0.04% IN 0.1-0.2 ML PHYSIOLOGICAL SALINE 1/D FOR D 1-5 OF LIFE (TOTAL DOSE 0.2 MG) (STUDY DURATION: LIFESPAN OR 1 YR), Tumor Site: Type of Lesion: LIVER: HEPATOCELLULAR CARCINOMA, HEPATOMA, CHOLANGIOMA, KIDNEY: MESENCHYMAL TUMOR, EPITHELIAL TUMOR) was “active; positive”. For the same compound, the carcinogen call (Species: RAT, Strain/Sex: WISTAR/MALE, Route: INTRAPERITONEAL, Dose: 0, 0.04% IN 0.1-0.2 ML PHYSIOLOGICAL SALINE 1/D FOR D 1-10 OF LIFE (TOTAL DOSE 0.4 MG) (STUDY DURATION: LIFESPAN OR 1 YR, Tumor Site: Type of Lesion: LIVER: HEPATOCELLULAR CARCINOMA, HEPATOMA, CHOLANGIOMA, ANGIOMA, KIDNEY: MESENCHYMAL TUMOR, EPITHELIAL TUMOR) was “active; positive”, the carcinogen call (Species: RAT, Strain/Sex: WISTAR/MALE, Route: INTRAPERITONEAL, Dose: 0, 0.04% IN 0.1-0.2 ML PHYSIOLOGICAL SALINE 1/D FOR D 1-20 OF LIFE (TOTAL DOSE 0.5 MG) (STUDY DURATION: LIFESPAN OR 1 YR, Tumor Site: Type of Lesion: LIVER: HEPATOCELLULAR CARCINOMA, HEPATOMA, ANGIOMA, KIDNEY: MESENCHYMAL TUMOR) was “active; positive” and the carcinogen call (Species: RAT, Strain/Sex: WISTAR/MALE, Route: ORAL, Dose: 0, 0.033, 0.066, 0.132, 0.264, 0.528, 1.056, 1.584, 2.112, 2.640, 3.168, 4.224, 5.280, 6.336, 8.448, 16.896 PPM IN DRINK, Dose: 0, 0.033, 0.066, 0.132, 0.264, 0.528, 1.056, 1.584, 2.112, 2.640, 3.168, 4.224, 5.280, 6.336, 8.448, 16.896 PPM IN DRINK, Tumor Site: Type of Lesion: LIVER: HEPATOCELLULAR CARCINOMA, HEMANGIOMA, BILE DUCT: TUMOR) was “active; positive”.

In the case of Nc1nnc(-c2ccc([N+](=O)[O-])o2)s1, the carcinogen call (Species: RAT, Route: ORAL, Tumor Site: Type of Lesion: MAMMARY GLAND) is reported as “active; positive”.

With O=[N+]([O-])c1cc2ccc3cc4ccccc4c4ccc(c1)c2c34 the carcinogen call (Species: MOUSE, Strain/Sex: B6C3F1/MALE, Route: INTRAPERITONEAL, Dose: 0, 400 NMOL IN 35 µL DMSO ON DAYS 1 (1/7 TOTAL DOSE), 8 (2/7 TOTAL DOSE), AND 15 (4/7 TOTAL DOSE) AFTER BIRTH (STUDY DUR, Tumor Site: Type of Lesion: LIVER: ADENOMA OR CARCINOMA) was “active; positive”.
